Data on 30 compounds can be found in US9000153B2, “Imidazo[4,5-c]quinolines as DNA-PK inhibitors” (Merck Patent GmbH, priority 2010, dated 2015).

A word on the IC50: it is the midpoint of a concentration-inhibition curve. A high value points to a need for much substance.

This experiment deals with DNA-PK (Homo sapiens (Human), UniProt P78527). The experiment in a line: DNA-PK/biochemical assay (FlashPlate kinase assay). Particulars: 5 μM ATP, 90 min, room temperature. The method, then: The kinase assay was carried out in streptavidin-coated […] microtitre FlashPlates®. To this end, 1.5 μg of the DNA-PK/protein complex and 100 ng of biotinylated substrate, such as, for example, PESQEAFADLWKK biotin-NH2 (“biotin-DNA-PK peptide”), in a total volume of 36.5 μl (34.25 mM HEPES/KOH, 7.85 mM Tris-HCl, 68.5 mM KCl, 5 μM ATP, 6.85 mM MgCl2, 0.5 mM EDTA, 0.14 mM EGTA, 0.69 mM DTT, pH 7.4), were incubated at room temperature for 90 min with 500 ng of DNA from calf thymus, 0.1 μCi of 33P-ATP and 1.8% of DMSO per well with or without the test compound. The reaction was stopped using 50 μl/well of 200 mM EDTA. After incubation for a further 30 min at room temperature, the liquid was removed. Each well was washed three times with 100 μl of 0.9% sodium chloride solution. A non-specific reaction (blank value) was determined using 10 μM of a proprietary kinase inhibitor. The radioactivity measurement was carried out by means of a TopCount. IC50 values were calculated in RS1 (Kashishian et al. (2003) Molecular Cancer Therapeutics 1257).

Some results are limits rather than exact numbers.

Turning to `COc1cc2ncc3[nH]c(=O)n(-c4ccc(C#N)cc4)c3c2cc1OC` [Compound 1, 4-(7,8-Dimethoxy-2-oxo-2,3-dihydroimidazo[4,5-c]quinolin-1-yl)benzonitrile], the IC50 was under 100 nM. `COc1cc2ncc3c(c2cc1OC)n(-c1ccc(C#N)cc1)c(=O)n3C` [Compound 2, 4-(7,8-Dimethoxy-3-methyl-2-oxo-2,3-dihydroimidazo-[4,5-c]quinolin-1-yl)-benzonitrile] showed an IC50 of under 100 nM. Next, `COc1cc2ncc3c(c2cc1O)n(-c1ccc(C#N)cc1)c(=O)n3C` [Compound 3, 4-(8-Hydroxy-7-methoxy-3-methyl-2-oxo-2,3-dihydro-imidazo[4,5-c]quinolin-1-yl)-benzonitrile]: under 100 nM. With `COc1cc2ncc3c(c2cc1O)n(-c1ccc(C#N)cc1F)c(=O)n3C` [Compound 4, 3-Fluoro-4-(8-hydroxy-7-methoxy-3-methyl-2-oxo-2,3-dihydroimidazo[4,5-c]quinolin-1-yl)benzonitrile], the IC50 is under 100 nM. `COc1cc2ncc3c(c2cc1O)n(-c1c(F)cc(C#N)cc1F)c(=O)n3C` [Compound 5, 3,5-Difluoro-4-(8-hydroxy-7-methoxy-3-methyl-2-oxo-2,3-dihydroimidazo[4,5-c]quinolin-1-yl)benzonitrile] displayed a half-maximal inhibitory concentration (IC50) of under 100 nM. Take `COc1cc2ncc3[nH]c(=O)n(-c4ccc(C#N)cc4)c3c2cc1OCc1ccccc1` [Compound 6, 4-(8-Benzyloxy-7-methoxy-2-oxo-2,3-dihydroimidazo-[4,5-c]quinolin-1-yl)-benzonitrile]: the IC50 was under 100 nM. In the case of `COc1cc2ncc3c(c2cc1OCc1ccccc1)n(-c1ccc(C#N)cc1)c(=O)n3C` [Compound 7, 4-(8-Benzyloxy-7-methoxy-3-methyl-2-oxo-2,3-dihydro-imidazo[4,5-c]quinolin-1-yl)-benzonitrile], the IC50 is under 100 nM. Next, `COc1cc2ncc3[nH]c(=O)n(-c4ccc(C#N)cc4F)c3c2cc1OCc1ccccc1` [Compound 8, 4-(8-Benzyloxy-7-methoxy-2-oxo-2,3-dihydroimidazo-[4,5-c]quinolin-1-yl)-3-fluorobenzonitrile]: under 100 nM; `COc1cc2ncc3c(c2cc1OCc1ccccc1)n(-c1ccc(C#N)cc1F)c(=O)n3C` [Compound 9, 4-(8-Benzyloxy-7-methoxy-3-methyl-2-oxo-2,3-dihydro-imidazo[4,5-c]quinolin-1-yl)-3-fluorobenzonitrile]: under 100 nM. `COc1cc2ncc3[nH]c(=O)n(-c4c(F)cc(C#N)cc4F)c3c2cc1OCc1ccccc1` [Compound 10, 4-(8-Benzyloxy-7-methoxy-2-oxo-2,3-dihydroimidazo-[4,5-c]quinolin-1-yl)-3,5-difluorobenzonitrile] showed an IC50 of under 100 nM. `COc1cc2ncc3c(c2cc1OCc1ccccc1)n(-c1c(F)cc(C#N)cc1F)c(=O)n3C` [Compound 11, 4-(8-Benzyloxy-7-methoxy-3-methyl-2-oxo-2,3-dihydro-imidazo[4,5-c]quinolin-1-yl)-3,5-difluorobenzonitrile] showed an IC50 of under 100 nM. As to `COC(=O)n1c(=O)n(-c2ccc(C#N)cc2F)c2c3cc(OCc4ccccc4)c(OC)cc3ncc21` [Compound 12, Methyl 8-benzyloxy-1-(4-cyano-2-fluorophenyl)-7-methoxy-2-oxo-1,2-dihydroimidazo[4,5-c]-quinoline-3-carboxylate], the IC50 was under 100 nM.

For `COc1cc2ncc3c(c2cc1OCc1ccsc1)n(-c1ccc(C#N)cc1F)c(=O)n3C` [Compound 13, 3-Fluoro-4-(7-methoxy-3-methyl-2-oxo-8-(thiophen-3-ylmethoxy)-2,3-dihydroimidazo[4,5-c]-quinolin-1-yl)benzonitrile], the concentration for half-maximal inhibition (IC50) was under 100 nM. The figure for `COc1cc2ncc3c(c2cc1OCc1cccs1)n(-c1ccc(C#N)cc1F)c(=O)n3C` [Compound 14, 3-Fluoro-4-(7-methoxy-3-methyl-2-oxo-8-(thiophen-2-ylmethoxy)-2,3-dihydroimidazo[4,5-c]-quinolin-1-yl)benzonitrile] is under 100 nM. For `COc1cc2ncc3c(c2cc1OC(C(N)=O)c1ccc(F)cc1)n(-c1ccc(C#N)cc1F)c(=O)n3C` (stereo not drawn) [Compound 15, 2-[1-(4-Cyano-2-fluorophenyl)-7-methoxy-3-methyl-2-oxo-2,3-dihydro-1H-imidazo[4,5-c]-quinolin-8-yloxy]-2-(4-fluoro-phenyl)acetamide], the IC50 is under 100 nM. `COCCNC(=O)C(Oc1cc2c(cc1OC)ncc1c2n(-c2ccc(C#N)cc2F)c(=O)n1C)c1ccc(F)cc1` (stereo not drawn) [Compound 16, 2-[1-(4-Cyano-2-fluorophenyl)-7-methoxy-3-methyl-2-oxo-2,3-dihydro-1H-imidazo[4,5-c]-quinolin-8-yloxy]-2-(4-fluoro-phenyl)-N-(2-methoxyethyl)-acetamide]: the IC50 was 100 to 500 nM.

In the case of `COc1cc2ncc3c(c2cc1OCc1ccc(F)cc1)n(-c1ccc(C#N)cc1F)c(=O)n3C` [Compound 17, 3-Fluoro-4-[8-(4-fluoro-benzyloxy)-7-methoxy-3-methyl-2-oxo-2,3-dihydro-imidazo[4,5-c]quinolin-1-yl]-benzonitrile], the IC50 is under 100 nM. In turn, `COc1cc2ncc3c(c2cc1OC(C(N)=O)c1ccccc1)n(-c1ccc(C#N)cc1F)c(=O)n3C` (stereo not drawn) [Compound 18, 2-[1-(4-Cyano-2-fluorophenyl)-7-methoxy-3-methyl-2-oxo-2,3-dihydro-1H-imidazo[4,5-c]-quinolin-8-yloxy]-2-phenyl-acetamide] returned an IC50 of under 100 nM. With `COc1cc2ncc3c(c2cc1OCc1sccc1S(=O)(=O)N1CCOCC1)n(-c1ccc(C#N)cc1F)c(=O)n3C` [Compound 19, 3-Fluoro-4-{7-methoxy-3-methyl-8-[3-(morpholine-4-sulfonyl)-thiophen-2-ylmethoxy]-2-oxo-2,3-dihydro-1H-imidazo[4,5-c]-quinolin-1-yl}benzonitrile], the IC50 is 100 to 500 nM.

Consider `COc1cc2ncc3c(c2cc1OCc1ccncc1)n(-c1ccc(C#N)cc1F)c(=O)n3C` [Compound 20, 3-Fluoro-4-[7-methoxy-3-methyl-2-oxo-8-(pyridin-4-ylmethoxy)-2,3-dihydroimidazo[4,5-c]-quinolin-1-yl]benzonitrile], for which the IC50 was under 100 nM.

Take `COc1cc2ncc3c(c2cc1OCc1ccccc1Br)n(-c1ccc(C#N)cc1F)c(=O)n3C` [Compound 21, 4-[8-(2-Bromobenzyloxy)-7-methoxy-3-methyl-2-oxo-2,3-dihydroimidazo[4,5-c]quinolin-1-yl]-3-fluorobenzonitrile]: the IC50 was under 100 nM. The compound `COc1cc2ncc3c(c2cc1OCc1ccc(F)cc1Br)n(-c1ccc(C#N)cc1F)c(=O)n3C` [Compound 22, 4-[8-(2-Bromo-4-fluorobenzyloxy)-7-methoxy-3-methyl-2-oxo-2,3-clihydro-imidazo[4,5-c]quinolin-1-yl]-3-fluorobenzonitrile] returned an IC50 of under 100 nM.

Regarding `COc1cc2ncc3c(c2cc1OCc1ccc(F)cc1Cl)n(-c1ccc(C#N)cc1F)c(=O)n3C` [Compound 23, 4-[8-(2-Chloro-4-fluorobenzyloxy)-7-methoxy-3-methyl-2-oxo-2,3-dihydro-imidazo[4,5-c]quinolin-1-yl]-3-fluorobenzonitrile], the IC50 is under 100 nM. `COc1cc2ncc3c(c2cc1OCc1ccc(F)c(Cl)c1)n(-c1ccc(C#N)cc1F)c(=O)n3C` [Compound 24, 4-[8-(3-Chloro-4-fluorobenzyloxy)-7-methoxy-3-methyl-2-oxo-2,3-dihydro-imidazo[4,5-c]quinolin-1-yl]-3-fluorobenzonitrile] yielded an IC50 of under 100 nM. In turn, `COc1cc2ncc3c(c2cc1OC(C(N)=O)c1ccc(F)cc1)n(-c1c(F)cc(C#N)cc1F)c(=O)n3C` (stereo not drawn) [Compound 25, 2-[1-(4-Cyano-2,6-difluoro-phenyl)-7-methoxy-3-methyl-2-oxo-2,3-dihydro-1H-imidazo-[4,5-c]quinolin-8-yloxy]-2-(4-fluorophenyl)acetamide] gave an IC50 of under 100 nM. In turn, `COc1cc2ncc3c(c2cc1OCc1ccsc1)n(-c1c(F)cc(C#N)cc1F)c(=O)n3C` [Compound 26, 3,5-Difluoro-4-(7-methoxy-3-methyl-2-oxo-8-(thiophen-3-ylmethoxy)-2,3-dihydroimidazo-[4,5-c]quinolin-1-yl)benzonitrile] gave an IC50 of under 100 nM. Turning to `COc1cc2ncc3c(c2cc1OCc1ccc(F)cc1)n(-c1c(F)cc(C#N)cc1F)c(=O)n3C` [Compound 27, 3,5-Difluoro-4-[8-(4-fluoro-benzyloxy)-7-methoxy-3-methyl-2-oxo-2,3-dihydroimidazo-[4,5-c]quinolin-1-yl]benzonitrile], the IC50 was under 100 nM. With `COc1cc2ncc3c(c2cc1OCc1cccs1)n(-c1c(F)cc(C#N)cc1F)c(=O)n3C` [Compound 28, 3,5-Difluoro-4-(7-methoxy-3-methyl-2-oxo-8-(thiophen-2-ylmethoxy)-2,3-dihydroimidazo-[4,5-c]quinolin-1-yl)benzonitrile], the IC50 is under 100 nM. For the compound `COc1cc2ncc3c(c2cc1OCc1cncs1)n(-c1ccc(C#N)cc1F)c(=O)n3C` [Compound 30, 3-Fluoro-4-[7-methoxy-3-methyl-2-oxo-8-(thiazol-5-ylmethoxy)-2,3-dihydroimidazo[4,5-c]-quinolin-1-yl)benzonitrile], the IC50 was under 100 nM. `COc1cc2ncc3c(c2cc1OC(CN)c1cccs1)n(-c1ccc(C#N)cc1F)c(=O)n3C` (stereo not drawn) [Compound 31, 4-[8-(2-Amino-1-thiophen-2-ylethoxy)-7-methoxy-3-methyl-2-oxo-2,3-dihydroimidazo-[4,5-c]quinolin-1-yl]-3-fluorobenzonitrile] displayed an IC50 of 100 to 500 nM.
